Measured values reported in PubChem BioAssay (NCI).
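These data come from cells grown in 96-well plates and exposed to compound for 48 hours at five concentrations. TGI denotes the concentration required for complete inhibition of growth.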

Tests used:
Assay in all cases: NCI tumour cell line growth inhibition, 48 h
OVCAR-5 ovarian = system: OVCAR-5 ovarian
K-562 leukemia = system: K-562 leukemia
CCRF-CEM leukemia = system: CCRF-CEM leukemia
BT-549 breast = system: BT-549 breast
DU-145 prostate = system: DU-145 prostate
NCI-H226 lung = system: NCI-H226 lung
TK-10 renal = system: TK-10 renal
CAKI-1 renal = system: CAKI-1 renal
MALME-3M melanoma = system: MALME-3M melanoma
HOP-92 NSCLC = system: HOP-92 NSCLC

| Structure (SMILES) | TGI (OVCAR-5 ovarian) | TGI (K-562 leukemia) | TGI (CCRF-CEM leukemia) | TGI (BT-549 breast) | TGI (DU-145 prostate) | TGI (NCI-H226 lung) | TGI (TK-10 renal) | TGI (CAKI-1 renal) | TGI (MALME-3M melanoma) | TGI (HOP-92 NSCLC) |
| --- | --- | --- | --- | --- | --- | --- | --- | --- | --- | --- |
| NC(=O)NNc1nc(-c2ccccc2)cs1 | > 100 µM | > 100 µM | > 100 µM | > 100 µM | > 100 µM | > 100 µM | > 100 µM | > 100 µM | > 100 µM |  |
| CCOP(=O)(/C=C\n1cc(C)c(=O)[nH]c1=O)OCC | > 100 µM | > 100 µM | > 100 µM | > 100 µM | > 100 µM | > 100 µM | > 100 µM | > 100 µM |  |  |
| COC(=O)C1(Cc2ccc3c(c2)CCC3)Cc2ccccc2C1O (configuration not stated) | 80 µM | 40.5 µM | 47.5 µM | 35.1 µM | > 100 µM | 36.6 µM | 53.1 µM | 52.3 µM | 37.6 µM |  |
| Nc1ccc(S(=O)(=O)c2ccc(NCN3C(=O)NC(=O)C(=O)C3=O)cc2)cc1 | > 100 µM | > 100 µM | > 100 µM | > 100 µM |  | > 100 µM | > 100 µM | > 100 µM | > 100 µM | > 100 µM |
| Cc1ccc(S(=O)(=O)n2c3ccc(Br)cc3c3nc4ccccc4nc32)cc1 | > 100 µM | > 100 µM | > 100 µM |  | > 100 µM | 0.879 µM | > 100 µM | > 100 µM |  | > 100 µM |
| COC(OC)[C@@H]1OC[C@H](n2cnc3c(N)ncnc32)[C@H]1O | > 100 µM | > 100 µM | > 100 µM | > 100 µM | > 100 µM | > 100 µM | > 100 µM | > 100 µM |  | > 100 µM |
| C=C(C(N)=O)c1ccc([N+](=O)[O-])o1 | 35.2 µM | 26 µM | 18.9 µM |  | 23.4 µM | 49.6 µM | 27.2 µM | 7.27 µM | 5.51 µM | 19.5 µM |
| O=C1CCCCCCCCCCC1CN1CCCC1 (configuration not stated) | > 100 µM | > 100 µM | > 100 µM | > 100 µM | > 100 µM | > 100 µM | > 100 µM | > 100 µM | > 100 µM |  |
| CC(=O)Oc1cc2c(cc1OC(C)=O)OCC(c1ccc(C)cc1)C2 (configuration not stated) | 79 µM | 72.3 µM | 26.8 µM |  |  | 62.2 µM |  | 40.4 µM | 32 µM | 29 µM |
| O=S(Nc1ccccc1)c1ccc(N2CCOCC2)cc1 (configuration not stated) |  | > 100 µM | > 100 µM | > 100 µM | > 100 µM | > 100 µM | > 100 µM |  | > 100 µM |  |
| CC1CCC/C1=C(/I)C(=O)c1ccccc1 (configuration not stated) | > 100 µM | > 100 µM | 75.5 µM |  | > 100 µM | > 100 µM | > 100 µM | 69.5 µM | > 100 µM |  |
| C=C/C(C)=C\CC1[C@](C)(O)CC[C@H]2C(C)(C)C(=O)CC[C@]12C (some centres not stated) | > 100 µM | > 100 µM | > 100 µM |  | > 100 µM | > 100 µM | > 100 µM | > 100 µM | > 100 µM | > 100 µM |
| CN(C)C(=O)OC1C(=O)N(C)c2ccc(Cl)cc2C2(c3ccccc3)N1C2(Cl)Cl (configuration not stated) | > 100 µM | > 100 µM | > 100 µM |  |  | > 100 µM | > 100 µM | > 100 µM | > 100 µM | > 100 µM |
| CC(=O)N1CC(C)(C)c2c(C)c(O)c(C)c(C)c21 | > 100 µM | > 100 µM | > 100 µM |  | > 100 µM | > 100 µM | > 100 µM |  |  | > 100 µM |
| NC(=O)c1cccc([N+](=O)[O-])c1 |  | > 100 µM | > 100 µM |  |  | > 100 µM | > 100 µM | > 100 µM | > 100 µM |  |
| CN(C)c1nc(N)nc(CS)n1 | > 100 µM | > 100 µM | 98.9 µM | > 100 µM | > 100 µM | > 100 µM | > 100 µM | > 100 µM |  | > 100 µM |
| CC1(C)N/C(=C\C=O)C(C)(C)N1O | > 100 µM | > 100 µM | > 100 µM |  | > 100 µM | > 100 µM | > 100 µM | > 100 µM | > 100 µM | > 100 µM |
| CCCCC(=O)c1c(O)nc2sccn2c1=O | > 10 µM |  | > 10 µM |  | > 10 µM | > 10 µM | > 10 µM | > 10 µM | > 10 µM |  |
